We go through 27 compounds from patent US20090143361A1, “Pyrido[3,2-E]Pyrazines, Process For Preparing The Same, And Their Use As Inhibitors Of Phosphodiesterase 10” (ELBION GMBH, priority 2007, published 2009).

For one assay, the target named is T1, human recombinant PDE10A (Homo sapiens, UniProt Q9Y233).
T1 construct: made in house; host or cells: SF21 insect cells (baculovirus)
T1 sequence (Q9Y233 1-779 isoform Q9Y233-1): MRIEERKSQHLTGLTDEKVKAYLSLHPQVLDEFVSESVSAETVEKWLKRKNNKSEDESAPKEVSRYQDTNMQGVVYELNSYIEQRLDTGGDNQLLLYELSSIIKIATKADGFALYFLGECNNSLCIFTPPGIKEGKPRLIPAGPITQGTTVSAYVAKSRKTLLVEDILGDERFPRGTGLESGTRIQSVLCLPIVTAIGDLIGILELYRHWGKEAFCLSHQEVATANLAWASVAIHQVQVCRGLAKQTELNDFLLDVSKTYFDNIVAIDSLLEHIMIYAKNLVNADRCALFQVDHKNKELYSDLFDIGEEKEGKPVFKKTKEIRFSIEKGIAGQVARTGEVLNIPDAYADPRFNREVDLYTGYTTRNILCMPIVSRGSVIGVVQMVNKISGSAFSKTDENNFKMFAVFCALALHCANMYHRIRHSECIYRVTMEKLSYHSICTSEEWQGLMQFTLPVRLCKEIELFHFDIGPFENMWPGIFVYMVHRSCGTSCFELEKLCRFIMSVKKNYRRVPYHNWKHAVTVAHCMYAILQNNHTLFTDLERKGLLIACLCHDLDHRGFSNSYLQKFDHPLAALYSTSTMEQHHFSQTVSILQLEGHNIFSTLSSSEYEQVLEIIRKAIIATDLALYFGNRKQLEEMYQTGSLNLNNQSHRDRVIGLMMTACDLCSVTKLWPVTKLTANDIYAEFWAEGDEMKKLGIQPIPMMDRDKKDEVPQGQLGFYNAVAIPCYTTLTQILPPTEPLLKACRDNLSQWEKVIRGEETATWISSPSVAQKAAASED
Kind of assay: Inhibition of PDE10, human recombinant PDE10A ([3H]-cAMP SPA). To be noted: Table 7; read-out: Human PDE10 (IC50 nM). The format is biochemical. Here is the method: The gene was than inserted into a baculovirus vector, ligated with the baculovirus DNA. The enzyme-protein was expressed in SF21-cells. The enzyme was isolated from these cells by harvesting the cells by a centrifugation at 200 g to collect the cells. The cells were resuspended in 50 mM Tris-HCl/5 mM MgCl2 buffer (pH=7.4) and lysed by a sonication of the cells. The cytosolic PDE10A was obtained by a centrifugation at 48000 g for 1 h in the supernatant and stored at −70° C. PDE10 activity was determined in a one step procedure in microtiterplates. […] Nonspecific activity was tested without the enzyme. The reaction was initiated by addition of the substrate solution and was carried out at 37° C. for 30 minutes. Enzymatic activity was stopped by addition of 25 μl YSi-SPA-beads (Amersham-Pharmacia). One hour later the mixture was measured in a liquid scintillation counter for microtiterplates (Microbeta Trilux). To pipette the incubation mixture a robot Biomek (Fa. Beckman) is used. […] For determination of IC50 values the Hill-plot, 2-parameter-model, was used.
Take `COc1ccc2nc(N)c3c(C(F)(F)F)nc(-c4ccccc4C)n3c2n1` [Example 38, 2-Methoxy-9-(2-methylphenyl)-7-(trifluoromethyl)imidazo[1,5-a]pyrido[3,2-e]pyrazin-6-amine]: the IC50 lay within 10 to 100 nM.
The same measure, in the same setting: with `COc1ccc2nc(C)c3c(C(F)(F)F)nc(-c4cnccc4OC)n3c2n1` [Example 34, 2-Methoxy-9-(4-methoxypyridin-3-yl)-6-methyl-7-(trifluoromethyl)imidazo[1,5-a]pyrido[3,2-e]pyrazine] the figure was > 100 nM; with `COc1ccc2nc(C)c3c(C)nc(-c4cnc(F)c(C)c4)n3c2n1` [Example 33, 9-(6-Fluoro-5-methylpyridin-3-yl)-2-methoxy-6,7-dimethylimidazo[1,5-a]pyrido[3,2-e]pyrazine], 10 to 100 nM; with `COc1ccc2nc(C)c3c(C(F)(F)F)nc(-c4cc(C(N)=O)ccc4F)n3c2n1` [Example 36, 4-Fluoro-3-[2-methoxy-6-methyl-7-(trifluoromethyl)imidazo[1,5-a]pyrido[3,2-e]pyrazin-9-yl]benzamide], 10 to 100 nM.

The assay is the same for the next values; noted with them: Table 9; read-out: hPDE10 IC50.
Take `Cc1nc(-c2ccc(F)c(C(N)=O)c2)n2c1c(C)nc1ccc(OCC3CC3)nc12` [Example 144, 5-(2-(cyclopropylmethoxy)-6,7-dimethylimidazo[1,5-a]pyrido[3,2-e]pyrazin-9-yl)-2-fluorobenzamide]: the concentration for half-maximal inhibition (IC50) is < 10 nM.
The same measure, in the same setting: the result for `COc1ccc2nc(C)c3c(C)nc(-c4ccc(N(C)C)nc4)n3c2n1` [Example 178, 5-(2-methoxy-6,7-dimethylimidazo[1,5-a]pyrido[3,2-e]pyrazin-9-yl)-N,N-dimethylpyridin-2-amine] reads > 100 nM; that for `Cc1nc(-c2cccc(C(N)=O)c2)n2c1c(C)nc1ccc(OCC3CC3)nc12` [Example 143, 3-[2-(cyclopropylmethoxy)-6,7-dimethylimidazo[1,5-a]pyrido[3,2-e]pyrazin-9-yl]benzamide], < 10 nM; that for `Cc1nc(-c2cccc(S(N)(=O)=O)c2)n2c1c(C)nc1ccc(OCC3CC3)nc12` [Example 148, 3-[2-(cyclopropylmethoxy)-6,7-dimethylimidazo[1,5-a]pyrido[3,2-e]pyrazin-9-yl]benzenesulfonamide], > 100 nM.
Still for that read-out and setting: the result for `Cc1ccccc1-c1nc(C)c2c(C)nc3ccc(OCc4ccc(F)cc4)nc3n12` [Example 157, 2-[(4-fluorobenzyl)oxy]-6,7-dimethyl-9-(2-methylphenyl)imidazo[1,5-a]pyrido[3,2-e]pyrazine] reads 10 to 100 nM; that for `COc1ccc2nc(C#N)c3c(C)nc(-c4cccnc4)n3c2n1` [Example 171, 2-methoxy-7-methyl-9-pyridin-3-ylimidazo[1,5-a]pyrido[3,2-e]pyrazine-6-carbonitrile], 10 to 100 nM.
Take `Cc1ccc(C(=O)O)cc1-c1nc(C)c2c(C)nc3ccc(OCC4CC4)nc3n12` [Example 146, 3-[2-(cyclopropylmethoxy)-6,7-dimethylimidazo[1,5-a]pyrido[3,2-e]pyrazin-9-yl]-4-methylbenzoic acid]: the IC50 was > 100 nM.
Same read-out and setting: the result for `COc1ccc2nc(C)c3c(C)nc(-c4ccc(Cl)c(C(N)=O)c4)n3c2n1` [Example 131, 2-chloro-5-(2-methoxy-6,7-dimethylimidazo[1,5-a]pyrido[3,2-e]pyrazin-9-yl)benzamide] reads 10 to 100 nM; that for `COc1cncc(-c2nc(C)c3c(C)nc4ccc(OC)nc4n23)c1` [Example 184, 2-methoxy-9-(5-methoxypyridin-3-yl)-6,7-dimethylimidazo[1,5-a]pyrido[3,2-e]pyrazine], < 10 nM.
On the same count and under the same terms, with `Cc1ccc(Cl)cc1-c1nc(C)c2c(C)nc3ccc(OCC4CC4)nc3n12` [Example 134, 9-(5-chloro-2-methylphenyl)-2-(cyclopropylmethoxy)-6,7-dimethylimidazo[1,5-a]pyrido[3,2-e]pyrazine] the figure was 10 to 100 nM.
The same measure, in the same setting: with `Cc1ccccc1-c1nc(C)c2c(C)nc3ccc(OCC4CC4)nc3n12` [Example 123, 2-(cyclopropylmethoxy)-6,7-dimethyl-9-(2-methylphenyl)imidazo[1,5-a]pyrido[3,2-e]pyrazine] the figure was < 10 nM; with `COc1ccc2nc(C#N)c3c(C)nc(-c4ccncc4)n3c2n1` [Example 170, 2-methoxy-7-methyl-9-pyridin-4-ylimidazo[1,5-a]pyrido[3,2-e]pyrazine-6-carbonitrile], > 100 nM.
Consider `COc1ccc2nc(C)c3c(C)nc(-c4ccnc(F)c4)n3c2n1` [Example 174, 9-(2-fluoropyridin-4-yl)-2-methoxy-6,7-dimethylimidazo[1,5-a]pyrido[3,2-e]pyrazine], for which the IC50 lay in the range of 10 to 100 nM.
For the compound `COc1ccc2nc(C#N)c3c(C)nc(-c4ccc(F)nc4C)n3c2n1` [Example 172, 9-(6-fluoro-2-methylpyridin-3-yl)-2-methoxy-7-methylimidazo[1,5-a]pyrido[3,2-e]pyrazine-6-carbonitrile], the concentration for half-maximal inhibition (IC50) was > 100 nM.
On the same count and under the same terms, with `COc1ccc2nc(C#N)c3c(C)nc(-c4ccc(F)c(C(N)=O)c4)n3c2n1` [Example 168, 5-(6-cyano-2-methoxy-7-methylimidazo[1,5-a]pyrido[3,2-e]pyrazin-9-yl)-2-fluorobenzamide] the figure was < 10 nM; with `Cc1c(F)cccc1-c1nc(C)c2c(C)nc3ccc(OCC4CC4)nc3n12` [Example 136, 2-(cyclopropylmethoxy)-9-(3-fluoro-2-methylphenyl)-6,7-dimethylimidazo[1,5-a]pyrido[3,2-e]pyrazine], < 10 nM.
On the same count and under the same terms, the result for `COc1ccc2nc(C#N)c3c(C)nc(-c4cnccc4C)n3c2n1` [Example 169, 2-methoxy-7-methyl-9-(4-methylpyridin-3-yl)imidazo[1,5-a]pyrido[3,2-e]pyrazine-6-carbonitrile] reads > 100 nM.
Take `Cc1ccccc1-c1nc(C)c2c(C)nc3ccc(=O)[nH]c3n12` [Example 152, 6,7-Dimethyl-9-o-tolylimidazo[1,5-a]pyrido[3,2-e]pyrazin-2(1H)-one]: the 50% inhibitory concentration (IC50) is 10 to 100 nM.
The same measure, in the same setting: with `COc1ccc2nc(C)c3c(C)nc(-c4ccc5[nH]ccc5c4)n3c2n1` [Example 177, 9-(1H-indol-5-yl)-2-methoxy-6,7-dimethylimidazo[1,5-a]pyrido[3,2-e]pyrazine] the figure was < 10 nM.
In the case of `Cc1ccc(C(N)=O)cc1-c1nc(C)c2c(C)nc3ccc(OCC4CC4)nc3n12` [Example 149, 3-[2-(cyclopropylmethoxy)-6,7-dimethylimidazo[1,5-a]pyrido[3,2-e]pyrazin-9-yl]-4-methylbenzamide], the IC50 was < 10 nM.
On the same count and under the same terms, the result for `Cc1ccncc1-c1nc(C)c2c(C)nc3ccc(=O)[nH]c3n12` [Example 159, 6,7-Dimethyl-9-(4-methylpyridin-3-yl)imidazo[1,5-a]pyrido[3,2-e]pyrazin-2(H)-one] reads > 100 nM.
Same read-out and setting: with `COc1ccc2nc(C)c3c(C)nc(CC#N)n3c2n1` [Example 133, (2-Methoxy-6,7-dimethylimidazo[1,5-a]pyrido[3,2-e]pyrazin-9-yl)acetonitrile] the figure was > 100 nM.
The same measure, in the same setting: with `COc1ccc(-c2nc(C)c3c(C)nc4ccc(OCC5CC5)nc4n23)cn1` [Example 139, 2-(cyclopropylmethoxy)-9-(6-methoxypyridin-3-yl)-6,7-dimethylimidazo[1,5-a]pyrido[3,2-e]pyrazine] the figure was > 100 nM.

The IC50 is the point on the concentration scale where inhibition reaches its midpoint.
